According to patent US20230233569A1 (Revolution Medicines, Inc., priority 2020, published 2023):
Like-named read-outs stand apart in the source and are kept apart here.

Legend:
AsPC-1 (K-Ras G12D) [1] = experiment: Potency assay: pERK; type: cell-based; conditions: Homo sapiens
AsPC-1 (K-Ras G12D) [2] = experiment: CellTiter-Glo cell viability assay; type: cell-based; conditions: Homo sapiens, ASPC1, 120 h
Description: Determination of Cell Viability in RAS Mutant Cancer Cell Lines
Protocol: CellTiter-Glo® Cell Viability Assay
Note—The following protocol describes a procedure for monitoring cell viability of K-Ras mutant cancer cell lines in response to a compound of the invention. Other RAS isoforms may be employed, though the number of cells to be seeded will vary based on cell line used.
Test compounds (132.5 nL) were directly dispensed into the assay plates containing cells. […] On day 5, assay plates and their contents were equilibrated to room temperature for approximately 30 minutes. […] Luminescence was measured using the PerkinElmer Enspire. Data were normalized by the following: (Sample signal/Avg. DMSO)*100. The data were fit using a four-parameter logistic fit.

KRAS G12D = KRAS G12D (Homo sapiens, UniProt P01116+P62937, G12D); experiment: Ras-Raf disruption / FRET / MOA assay (BRAF RBD); type: biochemical; conditions: KRAS G12D FRET data IC50, Ras-Raf disruption, with Cyclophilin A
Sequence of KRAS G12D (P01116 1-169 isoform P01116-2 G12D limits assumed): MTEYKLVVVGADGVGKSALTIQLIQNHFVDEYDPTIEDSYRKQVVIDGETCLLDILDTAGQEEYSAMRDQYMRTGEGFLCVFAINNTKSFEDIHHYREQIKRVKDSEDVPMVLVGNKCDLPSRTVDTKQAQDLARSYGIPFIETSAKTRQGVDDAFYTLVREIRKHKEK
Sequence of KRAS G12D (P62937 whole entry): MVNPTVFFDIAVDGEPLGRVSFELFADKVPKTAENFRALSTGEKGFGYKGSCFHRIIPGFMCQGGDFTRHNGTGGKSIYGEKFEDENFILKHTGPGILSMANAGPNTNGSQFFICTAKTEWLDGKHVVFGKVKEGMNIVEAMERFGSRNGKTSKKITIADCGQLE
In short: (§1)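 Compound-induced Ras–Cyclophilin A ternary complex disrupting BRAF RBD binding, read as IC50 from reduced TR-FRET ratio relative to DMSO. Final: Ras-GMPPNP 12.5 nM, BRAF RBD 50 nM, Cyclophilin A 25 μM, top compound 30 μM (3-fold, 10 points); 3 h at 25 °C, then 1.5 h with detection antibodies.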

KRAS G12S = KRAS G12S (Homo sapiens, UniProt P01116+P62937, G12S); experiment: Ras-Raf disruption / FRET / MOA assay (BRAF RBD); type: biochemical; conditions: KRAS G12S FRET data IC50, Ras-Raf disruption, with Cyclophilin A
Sequence of KRAS G12S (P01116 1-169 isoform P01116-2 G12S limits assumed): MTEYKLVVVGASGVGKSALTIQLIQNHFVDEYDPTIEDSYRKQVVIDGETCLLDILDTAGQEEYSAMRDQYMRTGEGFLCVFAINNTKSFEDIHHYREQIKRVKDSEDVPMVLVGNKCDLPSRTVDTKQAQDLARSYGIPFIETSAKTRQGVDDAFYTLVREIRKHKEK
Sequence of KRAS G12S (P62937 whole entry): as the sequence (P62937 whole entry) above
In short: as §1

KRAS G12V = KRAS G12V (Homo sapiens, UniProt P01116+P62937, G12V); experiment: Ras-Raf disruption / FRET / MOA assay (BRAF RBD); type: biochemical; conditions: KRAS G12V FRET data IC50, Ras-Raf disruption, with Cyclophilin A
Sequence of KRAS G12V (P01116 1-169 isoform P01116-2 G12V limits assumed): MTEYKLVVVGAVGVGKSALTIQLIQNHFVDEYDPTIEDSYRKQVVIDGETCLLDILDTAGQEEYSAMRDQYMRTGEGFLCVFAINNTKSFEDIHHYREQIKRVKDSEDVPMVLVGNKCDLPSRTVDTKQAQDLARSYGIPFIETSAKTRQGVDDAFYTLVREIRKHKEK
Sequence of KRAS G12V (P62937 whole entry): as the sequence (P62937 whole entry) above
In short: as §1

KRAS G13C = KRAS G13C (Homo sapiens, UniProt P01116+P62937, G13C); experiment: Ras-Raf disruption / FRET / MOA assay (BRAF RBD); type: biochemical; conditions: KRAS G13C FRET data IC50, Ras-Raf disruption, with Cyclophilin A
Sequence of KRAS G13C (P01116 1-169 isoform P01116-2 G13C limits assumed): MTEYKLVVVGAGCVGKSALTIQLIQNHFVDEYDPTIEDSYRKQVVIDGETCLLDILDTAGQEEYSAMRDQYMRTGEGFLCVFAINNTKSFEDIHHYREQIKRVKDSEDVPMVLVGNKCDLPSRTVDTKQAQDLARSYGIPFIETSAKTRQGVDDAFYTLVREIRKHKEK
Sequence of KRAS G13C (P62937 whole entry): as the sequence (P62937 whole entry) above
In short: as §1

KRAS G13D = KRAS G13D (Homo sapiens, UniProt P01116+P62937, G13D); experiment: Ras-Raf disruption / FRET / MOA assay (BRAF RBD); type: biochemical; conditions: KRAS G13D FRET data IC50, Ras-Raf disruption, with Cyclophilin A
Sequence of KRAS G13D (P01116 1-169 isoform P01116-2 G13D limits assumed): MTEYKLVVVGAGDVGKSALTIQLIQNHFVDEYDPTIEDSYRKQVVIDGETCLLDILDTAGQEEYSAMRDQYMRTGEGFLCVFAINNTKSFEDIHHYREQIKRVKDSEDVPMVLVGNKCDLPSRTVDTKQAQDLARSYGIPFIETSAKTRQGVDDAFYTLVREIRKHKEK
Sequence of KRAS G13D (P62937 whole entry): as the sequence (P62937 whole entry) above
In short: as §1

KRAS WT = KRAS WT (Homo sapiens, UniProt P01116+P62937); experiment: Ras-Raf disruption / FRET / MOA assay (BRAF RBD); type: biochemical; conditions: KRAS WT FRET data IC50, Ras-Raf disruption, with Cyclophilin A
Sequence of KRAS WT (P01116 1-169 isoform P01116-2 limits assumed): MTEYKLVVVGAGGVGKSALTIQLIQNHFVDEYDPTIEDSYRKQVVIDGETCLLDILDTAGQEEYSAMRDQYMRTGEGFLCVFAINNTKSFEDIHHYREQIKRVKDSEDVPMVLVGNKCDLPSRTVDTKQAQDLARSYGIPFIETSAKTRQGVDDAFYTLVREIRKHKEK
Sequence of KRAS WT (P62937 whole entry): as the sequence (P62937 whole entry) above
In short: as §1

NRAS G12C = NRAS G12C (Homo sapiens, UniProt P01111+P62937, G12C); experiment: Ras-Raf disruption / FRET / MOA assay (BRAF RBD); type: biochemical; conditions: NRAS G12C FRET data IC50, NRAS G12C
Sequence of NRAS G12C (P01111 whole entry G12C): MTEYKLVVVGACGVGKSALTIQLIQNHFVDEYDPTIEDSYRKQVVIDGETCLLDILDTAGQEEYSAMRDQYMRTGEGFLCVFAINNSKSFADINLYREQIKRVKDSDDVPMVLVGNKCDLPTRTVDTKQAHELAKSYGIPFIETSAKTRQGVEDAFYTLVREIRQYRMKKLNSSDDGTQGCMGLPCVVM
Sequence of NRAS G12C (P62937 whole entry): as the sequence (P62937 whole entry) above
In short: as §1

KRAS G12C = KRAS G12C (Homo sapiens, UniProt P01116+P62937, G12C); experiment: Ras-Raf disruption / FRET / MOA assay (BRAF RBD); type: biochemical; conditions: KRAS G12C FRET data IC50, Ras-Raf disruption, with Cyclophilin A
Sequence of KRAS G12C (P01116 1-169 isoform P01116-2 G12C limits assumed): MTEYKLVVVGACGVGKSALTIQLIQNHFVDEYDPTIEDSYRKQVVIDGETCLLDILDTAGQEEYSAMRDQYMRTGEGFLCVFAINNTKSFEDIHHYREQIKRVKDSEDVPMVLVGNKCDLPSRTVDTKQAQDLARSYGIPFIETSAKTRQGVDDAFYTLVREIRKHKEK
Sequence of KRAS G12C (P62937 whole entry): as the sequence (P62937 whole entry) above
In short: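 TR-FRET read-out after 1.5 h with anti-His Eu-W1024 (10 nM) and anti-GST APC (50 nM), following 3 h at 25 °C of compound (top 30 μM, 3-fold, 10 points) with 25 μM Cyclophilin A, 12.5 nM GMPPNP-loaded K-Ras G12C and 50 nM BRAF RBD; IC50 reported.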

[3] = read-out: AsPC-1 Cell Viability assay data IC50, K-Ras G12D, 5-day treatment
[4] = ASPC1, AsPC-1 KRAS G12D, read-out: pERK EC50
[5] = K-Ras G12D, 5-day treatment, read-out: AsPC-1 Cell Viability assay data IC50

Compound | EC50 (AsPC-1 (K-Ras G12D) [1]; ASPC1, read-out: pERK EC50) [nM] | IC50 (AsPC-1 (K-Ras G12D) [2]; [3]) [nM] | IC50 (KRAS G12D) [nM] | IC50 (KRAS G12S) [nM] | IC50 (KRAS G12V) [nM] | IC50 (KRAS G13C) [nM] | IC50 (KRAS G13D) [nM] | IC50 (KRAS WT) [nM] | IC50 (NRAS G12C) [nM] | IC50 (KRAS G12C) [nM] | EC50 (AsPC-1 (K-Ras G12D) [1]; [4]) [nM] | IC50 (AsPC-1 (K-Ras G12D) [2]; [5]) [nM]
CCn1c(-c2cccnc2[C@H](C)OC)c2c3cc(ccc31)-c1cc(O)cc(c1)C[C@H](NC(=O)[C@H](C(C)C)N(C)C(=O)[C@H]1CCCN1C(=O)[C@H]1CN1)C(=O)N1CCC[C@H](N1)C(=O)OCC(C)(C)C2 [Example 152] | < 5000 | 1000 to 10000 | 100 to 1000 | 100 to 1000 | 100 to 1000 | 10 to 100 | 100 to 1000 | 100 to 1000 | 10 to 100 | 10 to 100 |  | 
CCn1c(-c2cccnc2[C@H](C)OC)c2c3cc(ccc31)-c1cc(O)cc(c1)C[C@H](NC(=O)[C@H](C(C)C)N(C)C(=O)CNC(=O)[C@H]1CN1)C(=O)N1CCC[C@H](N1)C(=O)OCC(C)(C)C2 [Example 140] | < 5000 | 1000 to 10000 | 10 to 100 | 10 to 100 | 10 to 100 | < 10 | 10 to 100 | 10 to 100 | < 10 | < 10 |  | 
CCn1c(-c2cccnc2[C@H](C)OC)c2c3cc(ccc31)-c1cc(O)cc(c1)C[C@H](NC(=O)[C@H](C(C)C)N(C)C(=O)CN(C)C(=O)[C@H]1CN1CCO)C(=O)N1CCC[C@H](N1)C(=O)OCC(C)(C)C2 (stereo partly shown) [Example 161] | < 5000 | 1000 to 10000 | 100 to 1000 | 10 to 100 | 10 to 100 | 10 to 100 | 100 to 1000 | 10 to 100 | < 10 | < 10 |  | 
CCn1c(-c2cnccc2COC)c2c3cc(ccc31)-c1cc(O)cc(c1)C[C@H](NC(=O)[C@H](C(C)C)N(C)C(=O)CN(C)C(=O)[C@@H]1N[C@@H]1C)C(=O)N1CCC[C@H](N1)C(=O)OCC(C)(C)C2 [Example 105] | < 5000 | 1000 to 10000 |  |  |  |  |  |  |  |  |  | 
CCn1c(-c2cnccc2COC)c2c3cc(ccc31)-c1cc(O)cc(c1)C[C@H](NC(=O)[C@H](C(C)C)N(C)C(=O)CN(C)C(=O)C1CN1)C(=O)N1CCC[C@H](N1)C(=O)OCC(C)(C)C2 (stereo partly shown) [Example 33] | < 5000 |  |  |  |  |  |  |  |  | 10 to 100 |  | 
CCn1c(-c2cccnc2[C@H](C)OC)c2c3cc(ccc31)-c1cc(O)cc(c1)C[C@H](NC(=O)[C@@H](C(C)C)N(C)C(=O)[C@@]1(C)CCCN1C(=O)[C@H]1CN1)C(=O)N1CCC[C@H](N1)C(=O)OCC(C)(C)C2 [Example 240] |  |  |  |  |  |  |  |  |  |  | < 5000 | 1000 to 10000
CCn1c(-c2cccnc2[C@H](C)OC)c2c3cc(ccc31)-c1cc(O)cc(c1)C[C@H](NC(=O)[C@@H](C(C)C)N(C)C(=O)[C@@]1(C)CCCN1C(=O)[C@@H]1CN1)C(=O)N1CCC[C@H](N1)C(=O)OCC(C)(C)C2 [Example 242] |  |  |  |  |  |  |  |  |  |  | < 5000 | 1000 to 10000
CCn1c(-c2cnccc2COC)c2c3cc(ccc31)-c1cc(O)cc(c1)C[C@H](NC(=O)[C@H](C(C)C)N(C)C(=O)CN(C)C(=O)[C@H]1N[C@H]1c1ccccc1)C(=O)N1CCC[C@H](N1)C(=O)OCC(C)(C)C2 [Example 116] |  | > 10000 |  |  |  |  |  |  |  |  |  | 
CCn1c(-c2cccnc2[C@H](C)OC)c2c3cc(ccc31)-c1cc(O)cc(c1)C[C@H](NC(=O)[C@H](C(C)C)N(C)C(=O)[C@@H](C)N(C)C(=O)[C@H]1CN1)C(=O)N1CCC[C@H](N1)C(=O)OCC(C)(C)C2 [Example 114] | < 5000 | 1000 to 10000 | 1000 to 10000 | 1000 to 10000 | 1000 to 10000 | 100 to 1000 | 1000 to 10000 | 1000 to 10000 | 10 to 100 | 10 to 100 |  | 
CCn1c(-c2cccnc2[C@H](C)OC)c2c3cc(ccc31)-c1cc(O)cc(c1)C[C@H](NC(=O)[C@H](C(C)C)N(C)C(=O)[C@H]1CC[C@@H](C)N1C(=O)[C@@H]1CN1)C(=O)N1CCC[C@H](N1)C(=O)OCC(C)(C)C2 [Example 153] | < 5000 | 1000 to 10000 | 100 to 1000 | 100 to 1000 | 100 to 1000 | 100 to 1000 | 100 to 1000 | 100 to 1000 | 10 to 100 | 10 to 100 |  | 
CCn1c(-c2cccnc2[C@H](C)OC)c2c3cc(ccc31)-c1cc(O)cc(c1)C[C@H](NC(=O)[C@H](C(C)C)N(C)C(=O)[C@H]1CCCN1C(=O)[C@@H]1CN1)C(=O)N1CCC[C@H](N1)C(=O)OCC(C)(C)C2 [Example 151] | < 5000 | 1000 to 10000 | 100 to 1000 | 100 to 1000 | 10 to 100 | 100 to 1000 | 100 to 1000 | 100 to 1000 | < 10 | < 10 |  | 
CCn1c(-c2cccnc2[C@H](C)OC)c2c3cc(ccc31)-c1cc(O)cc(c1)C[C@H](NC(=O)[C@H](C(C)C)N(C)C(=O)CN(C)C(=O)[C@H]1N[C@@H]1C1CC1)C(=O)N1CCC[C@H](N1)C(=O)OCC(C)(C)C2 [Example 135] |  | 100 to 1000 | 10 to 100 | < 10 | 10 to 100 | < 10 | 10 to 100 | 10 to 100 | < 10 | < 10 |  | 
CCn1c(-c2cnccc2COC)c2c3cc(ccc31)-c1cc(O)cc(c1)C[C@H](NC(=O)[C@H](C(C)C)N(C)C(=O)CN(C)C(=O)[C@@H]1N[C@@H]1c1ccccc1)C(=O)N1CCC[C@H](N1)C(=O)OCC(C)(C)C2 [Example 110] | < 5000 | 1000 to 10000 |  |  |  |  |  |  |  |  |  | 
CCn1c(-c2cnccc2COC)c2c3cc(ccc31)-c1cc(O)cc(c1)C[C@H](NC(=O)[C@H](C(C)C)N(C)C(=O)CN(C)C(=O)[C@H]1N[C@H]1C1CC1)C(=O)N1CCC[C@H](N1)C(=O)OCC(C)(C)C2 [Example 104] | < 5000 | 1000 to 10000 |  |  |  |  |  |  |  |  |  | 
CCn1c(-c2cnccc2COC)c2c3cc(ccc31)-c1cc(O)cc(c1)C[C@H](NC(=O)[C@H](C(C)C)N(C)C(=O)CN(C)C(=O)[C@H]1N[C@H]1C(=O)OC)C(=O)N1CCC[C@H](N1)C(=O)OCC(C)(C)C2 [Example 51] | < 5000 | > 10000 |  |  |  |  |  |  |  |  |  | 
CCn1c(-c2cccnc2[C@H](C)OC)c2c3cc(ccc31)-c1cc(O)cc(c1)C[C@H](NC(=O)[C@H](C(C)C)N(C)C(=O)CNC(=O)[C@@H]1CN1)C(=O)N1CCC[C@H](N1)C(=O)OCC(C)(C)C2 [Example 147] | < 5000 | 1000 to 10000 | 100 to 1000 | 10 to 100 | 10 to 100 | 10 to 100 | 100 to 1000 | 10 to 100 | 10 to 100 | 10 to 100 |  | 
CCn1c(-c2cccnc2[C@H](C)OC)c2c3cc(ccc31)-c1cc(O)cc(c1)C[C@H](NC(=O)[C@H](C(C)C)N(C)C(=O)CN(C)C(=O)[C@@H]1CN1CCO)C(=O)N1CCC[C@H](N1)C(=O)OCC(C)(C)C2 (stereo partly shown) [Example 162] | < 5000 | 1000 to 10000 | 100 to 1000 | 10 to 100 | 10 to 100 | 10 to 100 | 10 to 100 | 10 to 100 | < 10 | < 10 |  | 
CCn1c(-c2cccnc2[C@H](C)OC)c2c3cc(ccc31)-c1cc(O)cc(c1)C[C@H](NC(=O)[C@H](C(C)C)N(C)C(=O)[C@]13C[C@H]1CCN3C(=O)[C@H]1CN1)C(=O)N1CCC[C@H](N1)C(=O)OCC(C)(C)C2 [Example 244] |  |  |  |  |  |  |  |  |  |  | < 5000 | 1000 to 10000
